Data on ten compounds can be found in US20140235548A1, “COMPOSITIONS AND METHODS FOR JAMM PROTEIN INHIBITION” (Cleave Biosciences, Inc., priority 2011, published 2014).

Read-outs that look alike come from different tables or passages of the source. Where a SMILES comes first, the peptide text is derived from it. The star is where a group is joined. Cbz = O=C(OCc1ccccc1)*

Test [1] deals with T1, Rpn11 (Homo sapiens, UniProt O00487). Description: Rpn11 fluorescence polarization assay with 26S proteasome and Ub4-peptide-Oregon Green substrate. Format: biochemical. The source says: As seens in FIG. 4A) the Rpn11 substrate consisted of six histidine residues followed by four ubiquitin sequences fallowed by the peptide sequence […]. The Oregon Green fluorophore was attached to the cysteine residue via maleimide chemistry. Following cleavage of the substrate by Rpn11, the product […] coupled to Oregon Green was released. The change in molecular weight of Oregon Green containing protein was detected by fluorescence polarization. The Rpn11 reaction can he inhibited with compound 1. In FIG. 4(B) progress curves for product generation by 26S proteasome (which contains Rpn11). Rpn11 cleaves the substrate immediately after the fourth ubiquitin (Ub). 5 nM Ub-Ub-Ub-Ub-peptide-oregon green substrate was incubated with 0.5 nM purified 26S proteasome for 120 min at room temperature. As labeled peptide is liberated, the fluorescence polarization diminishes. The cleavage reaction can be inhibited by the o-phenanthroline. In FIG. 4(C-E) dose-response curve for inhibition of Rpn11 by compound 1 (C), 3-hydroxy-4H-pyran-4-thione (D) or o-phenanthroline (E) were generated by adding varying doses of compound to the reaction mixture. At 120 minutes, fluorescence polarization was measured. Percent activity was calculated based on the amount of enzyme activity observed in the absence of added test agent.
An 8-point compound 001 dose titration curve was performed, by incubating Rpn11-containing 26S proteasome, Rpn11 substrate and compound (dose range 50 μM to 0.1 μM) and monitoring fluorescence polarization as per BIOEXAMPLE 4. Remaining activity as compared to DMSO control (% activity) was calculated and plotted versus compound 1 concentration and the curve was fit to a four-parameter fit model to obtain an IC50 value.
Background: Fluorescence polarisation rises when a labelled molecule tumbles more slowly, as on binding a larger partner.

In test [2] the target is T2, CSN5 (Homo sapiens, UniProt Q92905). The test is described as follows: Csn5 fluorescence polarization assay: release of Nedd8OG from Cul1-Nedd8OG / SCF^Skp2-Nedd8OG by CSN. The class given is biochemical.
The target in test [3] is T1, Rpn11. Description: Ub^G76V-GFP proteasome reporter degradation in HeLa cells (Rpn11 activity in cells). The class given is cell-based. As to conditions: cycloheximide, 90 min at 37° C., quantitative fluorescence microscopy, read-out: IC50, level of remaining Ub^G76V-GFP.
The next test concerns the target T3, AMSH-LP (Homo sapiens, UniProt Q96FJ0).
T3 sequence (Q96FJ0 1-436): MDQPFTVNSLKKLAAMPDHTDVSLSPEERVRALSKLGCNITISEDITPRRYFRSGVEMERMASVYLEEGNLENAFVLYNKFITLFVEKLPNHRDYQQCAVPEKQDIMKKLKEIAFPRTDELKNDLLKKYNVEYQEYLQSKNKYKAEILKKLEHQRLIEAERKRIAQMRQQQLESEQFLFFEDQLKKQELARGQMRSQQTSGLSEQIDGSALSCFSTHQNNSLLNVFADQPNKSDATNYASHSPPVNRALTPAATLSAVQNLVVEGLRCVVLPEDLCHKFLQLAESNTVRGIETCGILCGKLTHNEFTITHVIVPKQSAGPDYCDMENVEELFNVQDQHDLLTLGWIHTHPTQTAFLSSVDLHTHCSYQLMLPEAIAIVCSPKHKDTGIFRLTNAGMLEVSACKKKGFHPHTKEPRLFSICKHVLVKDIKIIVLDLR
Description: AMSH-LP assay: di-ubiquitin K63 cleavage to mono-ubiquitin (SDS-PAGE, anti-ubiquitin blot). The class given is biochemical. As to conditions: AMSH-LP 50 nM, di-ubiquitin K63 1 μM, 20 hours at room temperature; read-out: approximate IC50, mono-ubiquitin product formation. The source says:
Formation of product is dependant on the presence of AMSH-LP (lane 1).

Test [4] concerns neddylated forms of Cullins 1, 2, and 4A. The test is described as follows: Accumulation of neddylated Cullins 1, 2 and 4A in HEK-293T cells (immunoblot). Format: cell-based, human. To be noted: 15 min at 37° C. On the procedure:
Test compounds include Compound 1 (“Test Compound 1”), Compound 101 (“Test Compound 2”), and MLN4924 (“Comparison Compound”; Sulfamic acid, [(1S,2S,4R)-4-[4-[[(1S)-2,3-dihydro-1H-inden-1-yl]amino]-7H-pyrrolo[2,3-d]pyrimidin-7-yl]-2-hydroxycyclopentyl]methyl ester; CAS Reg. No. 905579-51-3). Human HEK-293T cells were treated with 100 μM compound 1, 100 μM compound 101, 3 μM MLN4924 or 1% DMSO for 15 min. at 37° C. At the end of the incubation, cells were harvested and lysed. All cell lysates were fractionated by SDS-PAGE, proteins were transferred to nitrocellulose, and Cu11, Cu12 and Cu14 was detected by immunoblotting with an antibody that recognizes human Cu11, Cu12 or Cu14. Cu11-N8: human Cu11 modified with Nedd8. Cu12-N8: human Cu12 modified with Nedd8. Cu14-N8: human Cu14 modified with Nedd8.
A general note: Immunoblotting shows a protein as a band on a membrane.

For test [5], the target named is T2, CSN5. The test is described as follows: Cell-based Csn5 assay: Cul1 neddylation in HEK-293T cells (immunoblot). Also noted: endogenous in cells; host or cells: HEK-293T. As to conditions: 30 min, increasing concentration. On the procedure:
Because cullins undergo a dynamic cycling between neddylated and unneddylated forms by the action of NAE1 and Csn5, respectively, a Csn5 inhibitor will block the removal of Nedd8 from cullin resulting in the accumulation of Nedd8-cullin. HEK-293T cells were treated with compound 001 for 30 min., washed with PBS and lysed in gel loading buffer. Clarified cell lysates (40 μg) were electrophoresed, transferred to nitrocellulose and immunoblotted with α-Cu11 or α-actin sera.

Setting [6] is: 0.5 nM 26S proteasome, 5 nM substrate, 120 min, room temperature (FIG. 4C-E), read-out: IC50, inhibition of Rpn11.
The mark [7] stands for this setting: Bioexample 16 table, read-out: RPN11 IC50.
[8] abbreviates: Bioexample 16 table, read-out: CSN5 IC50.

Consider `Oc1coccc1=S` [3-hydroxy-4H-pyran-4-thione, reference compound], for which, on Rpn11 [1] (setting [6]), the IC50 came out at 600 nM.

Take `Sc1cccc2cccnc12` [Compound 1, 8-quinolinethiol]: the IC50 was 6500 nM on CSN5 [2] (Cop9 signalsome, 8-point titration 100 μM to 0.05 μM, four-parameter fit (FIG. 11), read-out: IC50 on Csn5); 3800 nM on CSN5 [2] (purified CSN, fluorescence polarization, dose escalation (FIG. 2B), read-out: IC50, CSN release of Nedd8OG from Cu11-Nedd8OG); 120 nM at Rpn11 [3]; around 1600 nM at AMSH-LP; 3300 nM at Rpn11 [1] (setting [6]); 1100 nM on Rpn11 [1] (setting [7]). Also, the “conversion of Cu11, Cu12 and Cu14 to Nedd8-modified species” value in test [4] (100 μM) is recorded as “largely modified with Nedd8”. For the same compound, the “shift of Cu11 between unneddylated and neddylated form” value at CSN5 [5] is listed as “shifts the Cu11 population from the undeddylated to the neddylated form”.

In the case of `Cc1ccc2cccc(S)c2n1` [Compound 3, 8-SH-2-Me-quinoline], at Rpn11 [1] (setting [7]), the half-maximal inhibitory concentration (IC50) was 6100 nM.

As to `Cc1cnc2c(S)cccc2c1` [Compound 4], the IC50 came to 7700 nM at CSN5 [2] (setting [8]) and 1300 nM at Rpn11 [1] (setting [7]).

As to `Cc1ccnc2c(S)cccc12` [Compound 5], the IC50 on CSN5 [2] (setting [8]) is 22200 nM; at Rpn11 [1] (setting [7]), 2500 nM.

Turning to `Cc1ccc(S)c2ncccc12` [Compound 6], the IC50 was found to be 4100 nM on CSN5 [2] (setting [8]) and 1100 nM at Rpn11 [1] (setting [7]).

With `Cc1cc(S)c2ncccc2c1` [Compound 7], the half-inhibitory concentration (IC50) at Rpn11 [1] (setting [7]) was found to be 800 nM.

On to `CC(C)C[C@@H](C=O)NC(=O)[C@H](CC(C)C)NC(=O)[C@H](CC(C)C)NC(=O)OCc1ccccc1` [MG132, N-(benzyloxycarbonyl)leucinylleucinylleucinal] (Cbz-Leu-Leu-Leu-aldehyde), for which the IC50 on Rpn11 [3] was determined as 230 nM.

For the compound `NS(=O)(=O)OC[C@@H]1C[C@@H](n2ccc3c(N[C@H]4CCc5ccccc54)ncnc32)C[C@@H]1O` [MLN4924, Sulfamic acid, [(1S,2S,4R)-4-[4-[[(1S)-2,3-dihydro-1H-inden-1-yl]amino]-7H-pyrrolo[2,3-d]pyrimidin-7-yl]-2-hydroxycyclopentyl]methyl ester, reference compound], the “conversion of Cu11, Cu12 and Cu14 to Nedd8-modified species” value in test [4] (3 μM) was “remain in the non-neddylated form”.

Regarding `c1cnc2c(c1)ccc1cccnc12` [o-phenanthroline, reference compound], the IC50 at Rpn11 [3] is 590000 nM; on Rpn11 [1] (setting [6]) it was 158000 nM.

Broadly, the IC50 is the concentration at which inhibition is half-maximal.
